Experimental data published in ChEMBL document CHEMBL2331362, “Identification of N-acyl 4-(5-pyrimidine-2,4-dionyl)phenylalanine derivatives and their orally active prodrug esters as dual-acting alpha4-beta1 and alpha4-beta7 receptor antagonists” (Bioorg Med Chem Lett, 2013).

Columns and labels:
[1] = biological target: T1, Integrin alpha-4/beta-1 (Homo sapiens, UniProt P05556+P13612); test: Inhibition of human VCAM1 binding to integrin alpha4beta1 receptor in human Ramos cells labeled with Calcein AM; assay type: cell-based
T1 sequence (P05556 whole entry, one chain of several): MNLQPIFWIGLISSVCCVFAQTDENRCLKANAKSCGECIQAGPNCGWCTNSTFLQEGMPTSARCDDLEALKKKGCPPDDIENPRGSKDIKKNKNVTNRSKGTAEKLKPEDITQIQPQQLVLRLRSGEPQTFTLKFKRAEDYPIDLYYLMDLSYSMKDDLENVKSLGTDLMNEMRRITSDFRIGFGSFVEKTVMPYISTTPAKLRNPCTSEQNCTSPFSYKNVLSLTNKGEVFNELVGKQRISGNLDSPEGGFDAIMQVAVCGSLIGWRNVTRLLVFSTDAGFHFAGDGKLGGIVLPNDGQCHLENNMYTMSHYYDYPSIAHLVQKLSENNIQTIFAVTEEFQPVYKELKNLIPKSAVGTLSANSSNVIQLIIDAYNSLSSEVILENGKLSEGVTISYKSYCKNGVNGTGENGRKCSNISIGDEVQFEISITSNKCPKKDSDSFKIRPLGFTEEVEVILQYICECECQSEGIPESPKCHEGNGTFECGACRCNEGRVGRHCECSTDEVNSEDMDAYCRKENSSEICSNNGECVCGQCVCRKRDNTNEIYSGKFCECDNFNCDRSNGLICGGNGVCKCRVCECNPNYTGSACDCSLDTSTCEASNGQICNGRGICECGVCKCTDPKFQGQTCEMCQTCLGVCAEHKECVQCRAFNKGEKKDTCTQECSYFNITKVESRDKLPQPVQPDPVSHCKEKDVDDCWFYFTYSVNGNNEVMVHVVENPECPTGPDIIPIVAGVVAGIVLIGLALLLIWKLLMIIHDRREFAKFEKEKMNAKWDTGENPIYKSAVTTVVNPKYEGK

[2] = biological target: T1, Integrin alpha-4/beta-1; test: Inhibition of human VCAM1 binding to integrin alpha4beta1 receptor in human Ramos cells labeled with Calcein AM relative to (S)-2-(2-chloro-6-methylbenzamido)-3-(4-(2,6-dichlorobenzamido)phenyl)propanoic acid; assay type: cell-based
[3] = biological target: T2, Integrin alpha-4/beta-7 (Homo sapiens, UniProt P13612+P26010); test: Inhibition of human MAdCAM1 binding to integrin alpha4beta7 receptor in human RPMI 8866 cells labeled with Calcein AM; assay type: cell-based
T2 sequence (P13612 whole entry): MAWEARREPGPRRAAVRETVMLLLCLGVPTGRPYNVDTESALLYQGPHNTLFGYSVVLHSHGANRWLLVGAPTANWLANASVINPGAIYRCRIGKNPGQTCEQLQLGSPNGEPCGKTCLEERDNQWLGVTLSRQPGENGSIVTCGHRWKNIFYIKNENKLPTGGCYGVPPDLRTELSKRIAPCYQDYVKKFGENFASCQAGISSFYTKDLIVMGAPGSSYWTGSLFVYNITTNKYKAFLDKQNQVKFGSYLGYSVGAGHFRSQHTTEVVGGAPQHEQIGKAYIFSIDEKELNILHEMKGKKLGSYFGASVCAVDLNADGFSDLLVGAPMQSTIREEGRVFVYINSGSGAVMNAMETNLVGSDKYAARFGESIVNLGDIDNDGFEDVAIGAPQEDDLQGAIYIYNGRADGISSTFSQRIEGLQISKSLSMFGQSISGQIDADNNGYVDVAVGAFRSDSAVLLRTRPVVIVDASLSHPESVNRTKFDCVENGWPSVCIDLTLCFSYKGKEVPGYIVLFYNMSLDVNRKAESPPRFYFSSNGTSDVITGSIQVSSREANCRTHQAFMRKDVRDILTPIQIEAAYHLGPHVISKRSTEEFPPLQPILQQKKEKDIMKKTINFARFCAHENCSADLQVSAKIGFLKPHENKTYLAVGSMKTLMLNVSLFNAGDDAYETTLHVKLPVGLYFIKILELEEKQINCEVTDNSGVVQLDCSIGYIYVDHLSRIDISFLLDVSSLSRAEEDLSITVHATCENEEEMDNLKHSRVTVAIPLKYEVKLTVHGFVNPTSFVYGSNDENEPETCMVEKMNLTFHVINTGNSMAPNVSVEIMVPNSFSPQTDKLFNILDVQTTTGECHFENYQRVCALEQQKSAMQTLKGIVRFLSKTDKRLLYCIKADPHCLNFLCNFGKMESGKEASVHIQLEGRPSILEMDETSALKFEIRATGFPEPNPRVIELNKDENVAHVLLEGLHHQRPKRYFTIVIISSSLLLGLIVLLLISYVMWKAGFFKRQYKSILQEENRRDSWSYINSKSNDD
T2 sequence (P26010 whole entry): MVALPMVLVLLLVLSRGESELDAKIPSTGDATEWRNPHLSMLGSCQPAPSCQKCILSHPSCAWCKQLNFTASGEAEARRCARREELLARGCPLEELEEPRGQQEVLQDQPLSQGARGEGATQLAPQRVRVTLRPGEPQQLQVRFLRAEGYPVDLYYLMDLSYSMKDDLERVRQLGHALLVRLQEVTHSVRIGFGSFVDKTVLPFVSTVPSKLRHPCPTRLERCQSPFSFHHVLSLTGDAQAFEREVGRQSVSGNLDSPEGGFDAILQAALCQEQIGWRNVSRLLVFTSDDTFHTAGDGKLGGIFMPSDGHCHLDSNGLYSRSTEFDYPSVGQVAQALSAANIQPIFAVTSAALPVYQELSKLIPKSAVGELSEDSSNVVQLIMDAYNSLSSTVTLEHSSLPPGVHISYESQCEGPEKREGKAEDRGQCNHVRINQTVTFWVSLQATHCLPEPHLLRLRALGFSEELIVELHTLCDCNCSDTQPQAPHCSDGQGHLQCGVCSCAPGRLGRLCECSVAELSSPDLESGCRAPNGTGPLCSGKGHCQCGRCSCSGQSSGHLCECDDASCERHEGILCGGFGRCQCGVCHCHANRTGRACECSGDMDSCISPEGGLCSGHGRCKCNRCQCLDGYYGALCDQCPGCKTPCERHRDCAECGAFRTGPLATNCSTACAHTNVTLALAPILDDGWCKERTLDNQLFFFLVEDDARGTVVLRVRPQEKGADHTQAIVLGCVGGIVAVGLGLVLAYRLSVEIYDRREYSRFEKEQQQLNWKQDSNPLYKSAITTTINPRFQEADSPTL

[4] = biological target: Integrin alpha-4/beta-7 (Homo sapiens) (UniProt P13612+P26010); test: Inhibition of human MAdCAM1 binding to integrin alpha4beta7 receptor in human RPMI 8866 cells labeled with Calcein AM relative to (S)-2-(2-chloro-6-methylbenzamido)-3-(4-(2,6-dichlorobenzamido)phenyl)propanoic acid; assay type: cell-based
[5] = Apparent permeability across human Caco2 cells; assay type: ADME, cell-based; conditions: Caco-2
[6] = Oral bioavailability in rat; assay type: ADME, organism-based; conditions: in vivo
[7] = Distribution coefficient, log D of the compound; assay type: physicochemical; conditions: octanol/water

## COCCC1(C(=O)N[C@@H](Cc2ccc(-c3cn(C)c(=O)n(C)c3=O)c(C)c2)C(=O)O)CCCC1
[1]
  IC50: 64 nM
[2]
  Ratio IC50: 0.8

## COc1cccc(Br)c1C(=O)N[C@@H](Cc1ccc(-c2cn(C)c(=O)n(C)c2=O)c(C)c1)C(=O)O
[1]
  IC50: 255 nM
[2]
  Ratio IC50: 0.35

## CCc1cccc(Cl)c1C(=O)N[C@@H](Cc1ccc(-c2c(C)n(C)c(=O)n(C)c2=O)cc1)C(=O)O
[3]
  IC50: 151 nM
[1]
  IC50: 87 nM
[4]
  Ratio IC50: 2.3
[2]
  Ratio IC50: 0.53

## Cc1c(-c2ccc(C[C@H](NC(=O)c3c(C(C)C)cccc3C(C)C)C(=O)O)cc2)c(=O)n(C)c(=O)n1C
[3]
  IC50: 1970 nM
[1]
  IC50: 1450 nM
[4]
  Ratio IC50: 0.15
[2]
  Ratio IC50: 0.04

## Cc1cc(C[C@H](NC(=O)c2c(Cl)cccc2Cl)C(=O)O)ccc1-c1c(C)n(C)c(=O)n(C)c1=O
[3]
  IC50: 168 nM
[1]
  IC50: 10 nM
[4]
  Ratio IC50: 3.6
[2]
  Ratio IC50: 1.1

## Cc1cccc(Cl)c1C(=O)N[C@@H](Cc1ccc(-c2c(C)n(C)c(=O)n(C)c2=O)cc1)C(=O)O
[5]
  Papp: 2.9 ×10⁻⁶ cm/s
[3]
  IC50: 58 nM
[1]
  IC50: 35 nM
[4]
  Ratio IC50: 6.1
[6]
  bioavailability: 10%
[2]
  Ratio IC50: 2.1
[7]
  logD: -1.76

## CCOC(=O)[C@H](Cc1ccc(-c2c(C)n(C)c(=O)n(C)c2=O)cc1)NC(=O)c1c(C)cccc1Cl
[5]
  Papp: 34.7 ×10⁻⁶ cm/s
[6]
  bioavailability: 25%
[7]
  logD: 2.24

## COCCC1(C(=O)N[C@@H](Cc2ccc(-c3c(C)n(C)c(=O)n(C)c3=O)cc2)C(=O)O)CCCC1
[3]
  IC50: 324 nM
[1]
  IC50: 287 nM
[4]
  Ratio IC50: 1
[2]
  Ratio IC50: 0.49

## CCn1c(C)c(-c2ccc(C[C@H](NC(=O)C3(CCOC)CCCC3)C(=O)O)cc2)c(=O)n(CC)c1=O
[3]
  IC50: 565 nM
[1]
  IC50: 382 nM
[4]
  Ratio IC50: 0.46
[2]
  Ratio IC50: 0.29

## CC(=O)OC(C)OC(=O)[C@H](Cc1ccc(-c2c(C)n(C)c(=O)n(C)c2=O)cc1)NC(=O)c1c(F)cccc1F (some centres undefined)
[5]
  Papp: 12 ×10⁻⁶ cm/s
[6]
  bioavailability: 30%
[7]
  logD: 1.61

## Cc1cc(C[C@H](NC(=O)c2c(C)cccc2Br)C(=O)O)ccc1-c1cn(C)c(=O)n(C)c1=O
[1]
  IC50: 25 nM
[2]
  Ratio IC50: 2

## Cc1c(-c2ccc(C[C@H](NC(=O)c3c(Cl)cccc3C(C)C)C(=O)O)cc2)c(=O)n(C)c(=O)n1C
[3]
  IC50: 558 nM
[1]
  IC50: 215 nM
[4]
  Ratio IC50: 1
[2]
  Ratio IC50: 0.13

## Cc1cc(C[C@H](NC(=O)c2c(Cl)cccc2Cl)C(=O)O)ccc1-c1cn(C)c(=O)n(C)c1=O
[3]
  IC50: 220 nM
[1]
  IC50: 56 nM
[4]
  Ratio IC50: 1.9
[2]
  Ratio IC50: 0.68

## CCOC(=O)[C@H](Cc1ccc(-c2c(C)n(C)c(=O)n(C)c2=O)cc1)NC(=O)c1c(Cl)cccc1Cl
[5]
  Papp: 18.3 ×10⁻⁶ cm/s
[6]
  bioavailability: 6%
[7]
  logD: 2.01

## Cn1c(C(F)(F)F)c(-c2ccc(C[C@H](NC(=O)c3c(Cl)cccc3Cl)C(=O)O)cc2)c(=O)n(C)c1=O
[3]
  IC50: 219 nM
[1]
  IC50: 196 nM
[4]
  Ratio IC50: 1.3
[2]
  Ratio IC50: 0.46

## Cc1c(-c2ccc(C[C@H](NC(=O)c3c(Cl)cccc3Cl)C(=O)O)cc2)c(=O)n(C)c(=O)n1C
[5]
  Papp: 1.33 ×10⁻⁶ cm/s
[3]
  IC50: 35 nM
[1]
  IC50: 8 nM
[4]
  Ratio IC50: 16
[6]
  bioavailability: 1.7%
[2]
  Ratio IC50: 6.3
[7]
  logD: -2.02

## Cc1cc(C[C@H](NC(=O)c2c(C)cccc2Cl)C(=O)O)ccc1-c1cn(C)c(=O)n(C)c1=O
[1]
  IC50: 81 nM
[2]
  Ratio IC50: 1

## CCn1c(C)c(-c2ccc(C[C@H](NC(=O)c3c(C)cccc3Cl)C(=O)O)cc2)c(=O)n(CC)c1=O
[3]
  IC50: 164 nM
[1]
  IC50: 296 nM
[4]
  Ratio IC50: 1.7
[2]
  Ratio IC50: 0.37

## Cc1cccc(Cl)c1C(=O)N[C@@H](Cc1ccc(-c2c(C(F)(F)F)n(C)c(=O)n(C)c2=O)cc1)C(=O)O
[3]
  IC50: 167 nM
[1]
  IC50: 123 nM
[4]
  Ratio IC50: 2.4
[2]
  Ratio IC50: 0.1

## Cc1cc(C[C@H](NC(=O)c2c(C)cccc2Cl)C(=O)O)ccc1-c1c(C)n(C)c(=O)n(C)c1=O
[3]
  IC50: 254 nM
[1]
  IC50: 246 nM
[4]
  Ratio IC50: 1
[2]
  Ratio IC50: 0.14

## CCn1c(C)c(-c2ccc(C[C@H](NC(=O)c3c(Cl)cccc3Cl)C(=O)O)cc2)c(=O)n(CC)c1=O
[3]
  IC50: 124 nM
[1]
  IC50: 63 nM
[4]
  Ratio IC50: 4.8
[2]
  Ratio IC50: 0.8
